Results reported in patent US11685717B2, “Polypeptide integrin antagonists” (The General Hospital Corporation, priority 2018, dated 2023).
“Also recorded” adds a separate entry of the source. Positions of bridges follow the written chain, without caps; N, C: chain ends. Non-standard residues stand in square brackets, D forms with d. Residues, ends and D or L forms follow the SMILES beside them. hArg = N=C(N)NCCCC[C@H](N)C(=O)O; Mpa = O=C(O)CCS

How the values were obtained:
αIIbβ3 = target: T1, αIIbβ3 (Homo sapiens, UniProt P05106+P08514); assay: Binding of conformation-sensitive mAbs AP5 / LIBS-1 to human platelets; format: cell-based
T1 construct: expressed in transfected cells; host or cells: K562

human platelets [1] = assay: Thrombin-induced clot retraction in human platelet-rich plasma; format: cell-based
Description: 750 μL of Tyrode's buffer supplemented with inhibitor was mixed in a glass culture tube with 200 μL of PRP and 5 μL red blood cells. Clotting was initiated by addition of 50 μL thrombin at 10 units/mL in saline and a sealed Pasteur pipette secured in the tube center. Digital photographs of the experiment were taken at 15-minute intervals over 2 hours. Images were analyzed with ImageJ software to determine the area occupied by the clot and plasma. Plots of the relative areas and linear regressions were performed with SigmaPlot (Systat Software, San Jose, Calif.).
No ligands were added to the control tube. Photographs were taken immediately after thrombin addition (FIG. 5A) and at the end of the reaction (FIG. 5B). Clot retraction around the central glass rod placed in each glass test tube before thrombin addition is shown. 5 μL of red blood cells were added per 1 mL reaction to enhance the color contrast for photography.
Clot retraction normally helps secure hemostasis in vivo as evidenced by increased bleeding in mice with impaired clot retraction (see e.g., Leon et al, Blood 110, 3183-3191, doi:10.1182/blood-2007-03-080184 (2007)), or in recipients of any of the three anti-αIIbβ3 drugs (see e.g., Tutwiler et al, Biophys. J. 112, 714-723 (2017); Osdoit et al, J. Biol. Chem. 276, 6703-6710 (2001); Haling et al, Blood 117, 1719-1722 (2011)). The effects of Hr10 and eptifibatide on thrombin-induced clot retraction in fresh human platelet-rich plasma (PRP) (see e.g., Tucker et al, Methods Mol. Biol. 788, 101-107 (2012)) were compared. The kinetics of clot retraction were determined from quantification of serial images of the reaction acquired every 15 minutes for the 2-hour duration of the assay. […] Thrombolysis, 15, 71-80 (2003).

human platelets [2] = assay: Cremaster laser injury thrombosis in vWF RH/RH NSG mice infused with human platelets; format: in vivo; conditions: eptifibatide 5 μg/mouse, Hr10 60 μg/mouse (equimolar), infused 5 min before injury; FIG. 13A
Description: Human blood was collected in 0.129 M sodium citrate (10:1 vol/vol). Blood was obtained from healthy donors after informed consent. Platelet-rich plasma (PRP) was separated after centrifugation (200 g, 10 minutes) at room temperature (RT). The platelets were then isolated from PRP, and prostaglandin E1 (Sigma-Aldrich) added to a final concentration of 1 μM. Platelets were then pelleted by centrifugation (800 g, 10 minutes) at RT. The pellet was washed in calcium-free Tyrode's buffer (134 mM NaCl, 3 mM KCl, 0.3 mM NaH2PO4, 2 mM MgCl2, 5 mM HEPES, 5 mM glucose, 0.1% NaHCO3, and 1 mM EGTA, pH 6.5), and re-suspended in CATCH buffer (PBS and 1.5% bovine serum albumin, 1 mM adenosine, 2 mM theophylline, 0.38% sodium citrate, all from Sigma-Aldrich). Platelet counts were determined using a HemaVet counter (Drew Scientific). Intravital microscopy was performed as previously described (see e.g., Celi et al, J. Thromb. Haemost. 1, 60-68 (2003); and Neyman et al, Blood, 112, 1101-1108 (2008)). vWF^RH RHNSG male mice were studied after being anesthetized using sodium pentobarbital (80 mg/kg) injected intraperitoneally. Mice were maintained under anesthesia with the same anesthetic delivered via a catheterized jugular vein at 5 mg/mL throughout the experiment. […]

human platelets [3] = assay: Surface expression of CD62P and CD63 on human platelets (flow cytometry); format: cell-based; conditions: 1.5 μM; ADP 20 μM; FIG. 11F
Description: αVβ3-K562 cells or transiently transfected HEK293T (0.5×10^6 in 100 μL WB) were incubated in the absence or presence of unlabeled Hr10 or eptifibatide, each at 1.5 μM, for 20 min at RT. Alexa647-labeled AP5 Fab or unlabeled anti-LIBS-1 (each to 10 μg/mL) were added, and cells incubated for an additional 30 min before washing. Alexa647-labeled AP3 was used for normalization of integrin expression. APC-labeled goat anti-mouse Fc-specific antibody was added to anti-LIBS-1-bound cells for an additional 30 min at 4° C., cells washed and processed for flow cytometry. Binding of anti-CD62 and anti-CD63 mAbs to platelets was performed by incubating (20 min, RT) 100 μL of ligand-pretreated 3.2% sodium citrate whole blood with either Alexa488-labeled mAb (at 10 μg/mL) in the presence of 10 μg/mL Alexa647-labeled anti-CD42b. Cells were fixed in 2% paraformaldehyde and CD62 and CD63 expression was analyzed by flow cytometry in the CD42b positive population.

[4] = Tail bleeding in vWF RH/RH NSG mice infused with human platelets; conditions: mouse, in vivo
Description: Pentobarbital-anesthetized vWF^RH RHNSG mice were infused retroorbitally with 8×10^8 washed human platelets in a final volume of 200 μL (so that ˜40% of the circulating platelets were human). After 5 minutes PBS, 3 μM eptifibatide or Hr10 were administered IV. After another 5 minutes, mouse tail injury was produced by amputating an 8-mm terminal tail segment using a razor blade, which was then placed in a collection tube containing sterile water at 37° C. for 10 minutes. The hemoglobin level in the water was measured by a spectrophotometer, as described (see e.g., Greene et al, J. Thromb. Haemost. 8, 2820-2822 (2010)) with the following modifications. Briefly, the hemolyzed whole blood/water mixture was centrifuged at 21,000×g for 5 minutes. Aliquots (20 μL) of clarified, stroma-free supernatant were diluted 10-fold in a Corning 96-well micro-plate and light absorbance measured at 575 nm (Spectramax-190 plate reader, Molecular Devices, San Jose, Calif.). Blood loss during the 10-minute window was measured based on a previously obtained standard curve.

T1 sequence (P08514 32-887 limits assumed): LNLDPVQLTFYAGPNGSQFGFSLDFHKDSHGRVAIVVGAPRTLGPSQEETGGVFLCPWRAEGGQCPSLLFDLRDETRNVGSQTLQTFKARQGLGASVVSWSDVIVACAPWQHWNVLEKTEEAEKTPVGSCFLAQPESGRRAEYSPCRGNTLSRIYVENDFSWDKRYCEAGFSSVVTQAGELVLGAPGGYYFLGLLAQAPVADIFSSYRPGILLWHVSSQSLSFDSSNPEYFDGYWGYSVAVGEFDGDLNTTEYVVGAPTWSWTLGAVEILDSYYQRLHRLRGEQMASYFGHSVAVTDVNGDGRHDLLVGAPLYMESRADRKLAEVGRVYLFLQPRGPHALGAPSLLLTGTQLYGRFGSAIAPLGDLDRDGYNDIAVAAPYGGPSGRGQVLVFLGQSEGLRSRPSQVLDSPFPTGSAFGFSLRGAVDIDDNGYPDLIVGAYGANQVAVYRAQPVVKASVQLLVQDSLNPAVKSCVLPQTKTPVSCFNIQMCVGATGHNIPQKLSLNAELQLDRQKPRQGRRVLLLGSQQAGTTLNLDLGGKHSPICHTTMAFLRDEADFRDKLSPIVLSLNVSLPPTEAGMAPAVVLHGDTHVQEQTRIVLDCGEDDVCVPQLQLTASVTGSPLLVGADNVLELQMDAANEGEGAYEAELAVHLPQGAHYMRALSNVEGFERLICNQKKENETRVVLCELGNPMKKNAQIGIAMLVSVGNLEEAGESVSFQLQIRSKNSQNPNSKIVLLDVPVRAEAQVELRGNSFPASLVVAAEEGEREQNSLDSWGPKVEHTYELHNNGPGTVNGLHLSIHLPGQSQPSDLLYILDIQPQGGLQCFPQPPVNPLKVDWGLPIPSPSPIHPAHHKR
T1 sequence (P08514 891-1039 partner limits assumed): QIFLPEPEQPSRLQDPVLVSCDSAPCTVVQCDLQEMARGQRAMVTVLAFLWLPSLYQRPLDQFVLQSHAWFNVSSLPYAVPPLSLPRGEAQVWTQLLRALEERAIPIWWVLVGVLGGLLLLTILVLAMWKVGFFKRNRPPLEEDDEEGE
T1 sequence (P05106 27-788): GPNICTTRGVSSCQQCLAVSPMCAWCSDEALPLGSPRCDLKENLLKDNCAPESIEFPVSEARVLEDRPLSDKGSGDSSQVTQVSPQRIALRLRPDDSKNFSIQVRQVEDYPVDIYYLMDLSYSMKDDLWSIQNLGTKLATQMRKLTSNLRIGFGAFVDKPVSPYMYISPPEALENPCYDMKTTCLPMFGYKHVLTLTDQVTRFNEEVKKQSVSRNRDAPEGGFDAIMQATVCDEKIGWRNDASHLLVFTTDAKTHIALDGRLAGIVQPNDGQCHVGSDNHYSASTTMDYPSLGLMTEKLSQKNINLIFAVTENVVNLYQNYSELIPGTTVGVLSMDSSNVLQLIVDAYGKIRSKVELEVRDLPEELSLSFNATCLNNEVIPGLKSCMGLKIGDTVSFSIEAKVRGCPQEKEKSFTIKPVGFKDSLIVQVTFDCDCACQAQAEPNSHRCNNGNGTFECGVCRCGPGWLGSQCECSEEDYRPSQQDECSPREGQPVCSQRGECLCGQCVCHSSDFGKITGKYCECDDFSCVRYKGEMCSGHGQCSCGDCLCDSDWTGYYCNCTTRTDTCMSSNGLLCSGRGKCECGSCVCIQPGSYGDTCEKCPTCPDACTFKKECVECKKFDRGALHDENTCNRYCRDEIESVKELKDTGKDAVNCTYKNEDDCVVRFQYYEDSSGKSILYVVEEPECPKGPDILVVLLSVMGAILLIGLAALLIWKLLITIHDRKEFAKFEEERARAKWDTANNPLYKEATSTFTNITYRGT

SMILES | Induction of AP5 epitope expression on human platelets (αIIbβ3; tirofiban 150 nM, M-tirofiban 1.5 μM, ADP 5 μM, FIG. 6D) | Kinetics of thrombin-induced clot retraction (human platelets [1]; FIG. 6E, three experiments, vs buffer control) | Clot retraction induced by α-thrombin (photographs) (human platelets [1]; tirofiban 1.5 μM, m-tirofiban 15 μM, α-thrombin 0.5 unit/mL, FIG. 5) | Nascent occlusive thrombus formation / human platelet accumulation at laser-induced arteriolar injury (human platelets [2]) | ADP-induced secretion from lysosomes (CD63 expression) (human platelets [3]) | ADP-induced secretion from platelet α-granules (CD62P expression) (human platelets [3]) | Conformational changes in αIIbβ3 reported by binding of mAbs AP5 and LIBS-1 (αIIbβ3; 1.5 μM, absence or presence of 5 μM ADP, FIG. 8D) | Bleeding volume [4] | Bleeding in humanized mice ([4]; iv) | Kinetics of thrombin-induced clot retraction vs. buffer (human platelets [1]; fresh human PRP, 2 hours, FIGS. 12A-12B, three experiments)
CCCCS(=O)(=O)N[C@@H](Cc1ccc(OCCCCC2CCNCC2)cc1)C(=O)O [tirofiban] | induced expression of the AP5 epitope | effectively blocked thrombin-induced clot retraction | completely blocked clot retraction | – | – | – | – | – | – | –
N=C(N)NCCCC[C@@H]1NC(=O)CCSSC[C@@H](C(N)=O)NC(=O)[C@@H]2CCCN2C(=O)[C@H](Cc2c[nH]c3ccccc23)NC(=O)[C@H](CC(=O)O)NC(=O)CNC1=O [eptifibatide] ([Mpa][hArg]GDWPC-NH2; disulfide 1-7) | – | – | – | completely preventing nascent occlusive thrombus formation | did not significantly alter; also recorded: No differences | did not significantly alter; also recorded: No differences | induced conformational changes in αIIbβ3 | ~10 % of blood volume of a normal mouse | caused excessive bleeding | significantly blocked clot retraction; also recorded: clot retraction was significantly reduced
